Data as given in patent publication US20190185509A1, “2'2' CYCLIC DINUCLEOTIDES WITH PHOSPHONATE BOND ACTIVATING THE STING ADAPTOR PROTEIN” (INSTITUTE OF ORGANIC CHEMISTRY AND BIOCHEMISTRY ASCR, V.V.I., priority 2017, published 2019).

How the values were obtained:
WT STING [1] = target: T1, WT STING (Homo sapiens, UniProt Q86WV6, H232R); assay: Differential Scanning Fluorimetry (DSF) with WT STING; assay type: binding; design: truncated human WT STING or AQ STING (amino acid residues 140-343) with N-terminal 8×His and SUMO tag; 8xHis-SUMO (N, cleaved yes); made in house; host or cells: E. coli Rosetta-gami B (DE3); details: thermal shift vs apoprotein; truncated human WT STING 0.1 mg/ml; 150 μM CDN
Protocol: (§1) WT STING and AO STING Proteins
(§2) Purified PCR products were cleaved with restriction enzymes BamHI (cat. #R0136S, NEB, Ipswich, USA) and NotI (cat. #R0189S, NEB, Ipswich, USA) and cloned into the pSUMO vector linearized with the identical enzymes.
(§3) DNase I (cat. #D5025, Sigma Aldrich, Czech Republic) and RNase A (cat. #R6513, Sigma Aldrich, Czech Republic) were added (final concentration 50 μg/ml) together with MgCl2 (final concentration 5 mmol·l^−1) to the homogenate and bacteria were lysed using French Press G-M™ High-Pressure Cell Press Homogenizer (1500 psi, 3 cycles). […] The resin was poured into a chromatography column, washed with 50 ml buffer A (50 mmol·l^−1 TrisCl (pH 8.0), 800 mmol·l^−1 NaCl, 3 mmol·l^−1 β-mercaptol; 10% glycerol; 20 mmol·l^−1 imidazole) and 8-His-SUMO tagged STING proteins were eluted with 15 ml buffer A containing 300 mmol·l^−1 imidazole. […] Proteins were concentrated with Amicon® Ultra-15 10 K device (cat. #UFC901008, Merck Millipore, Billerica, USA) and flash frozen in liquid N2.
(§4) Differential Scanning Fluorimetry with WT STING and AQ STING
(§5) 20 μL solutions of the reaction mixtures were pipetted in triplicates into 96 well optical reaction plates and thermal denaturation of samples were performed on real time PCR cycler (LightCycler R 480 Instrument II-Roche, Basel, Switzerland). The first derivative of the thermal denaturation curves was performed to calculate denaturing temperatures of STING-CDN complexes and STING apoproteins. The thermal shift for each CDN was calculated by subtracting the average denaturing temperature of STING apoprotein from the average denaturing temperature of STING CDN complex.
Target sequence in this assay (Q86WV6 140-343 H232R): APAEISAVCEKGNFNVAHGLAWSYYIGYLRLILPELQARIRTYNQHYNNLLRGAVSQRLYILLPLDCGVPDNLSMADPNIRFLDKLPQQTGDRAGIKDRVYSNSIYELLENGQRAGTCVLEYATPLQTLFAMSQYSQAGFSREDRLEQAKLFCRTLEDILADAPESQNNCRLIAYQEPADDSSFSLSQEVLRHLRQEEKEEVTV

WT STING [2] = target: T1, WT STING; assay: Digitonin assay using 293T wtSTING-FL reporter cells; assay type: cell-based; details: 293T wtSTING-FL cells, ISRE firefly luciferase reporter; 30 min in Digitonin buffer, then 5 hours; 8-point dose-response
Excerpt: ISRE Reporter Plasmid (pGL64.27-4×ISRE)
Two complementary oligonucleotides of the sequence […] […] […] […] […] […] […] The oligonucleotides were mixed in equal molar amounts, hybridized, and cleaved by restriction endonucleases HindIII (cat. #. R0104S, NEB, Ipswich, USA) and BglII (cat. #R0144S, NEB, Ipswich, USA). Ultimately, they were ligated into plasmid pGL4.27 (cat. #E6651, Promega, Madison, USA) linearized with the same enzymes. As result the sequence with four ISRE sites was placed upstream of the minimum promoter of firefly luciferase reporter gene.
After 5 minutes incubation at room temperature (RT), 250 μL of the mixture was added dropwise to the cells in one well. Cells were incubated 36 hours at 37° C. with 5% CO2, and then detached with 0.05% Trypsin and 0.22 g/L EDTA (both cat. #L0941, Biowest, Riverside, USA).
Transfected cells were seeded onto poly-D-lysine coated six well plates at density 50,000 cells per 1 cm^2 in DMEM medium with high glucose containing 10% heat inactivated FBS, 30 μg/mL blasticidin (cat. #ant-bl-05, InvivoGen, San Diego, USA), 0.06 mg/ml Penicillin G and 0.1 mg/ml Streptomycin Sulfate (both cat. #. L0018, Biowest, Riverside, USA). The medium was replenished every 3-4 days until visible colonies of cells resistant to blasticidin were formed.
Blasticidin resistant cells stably expressing WT STING were further transfected with pGL64.27-4×ISRE plasmid following the same procedure as described above. […] Homogeneous culture of stably double transfected cells was prepared by limiting dilution of cells in 96 well plates and wells with cells were selected that originated from a single cell.
The medium was removed next day and three fold serial dilutions of compounds in Digitonin buffer containing 50 mmol·l^−1 HEPES (cat. #H3375, Sigma Aldrich, Czech Republic) pH 7.0, 100 mmol·l^−1 KCl, 3 mmol·l^−1 MgCl2, 0.1 mmol·l^−1 DTT (cat. #D0632, Sigma Aldrich, Czech Republic), 85 mmol·l^−1 Sucrose (cat. #S7903, Sigma Aldrich, Czech Republic), 0.2% BSA (cat. #A2153, Sigma Aldrich, Czech Republic), 1 mmol·l^−1 ATP (cat. #A1852, Sigma Aldrich, Czech Republic), 0.1 mmol·l^−1 GTP (cat. #G8877, Sigma Aldrich, Czech Republic), and 10 μg/mL Digitonin A (cat. #D141, Sigma Aldrich, Czech Republic) were added to the cells. The buffer was removed after 30 minutes incubation at 37° C. with 5% CO2, the cells were washed once with 100 μl of cultivation medium, and 100 μl of medium was added to each well. The plates with cells were incubated for 5 hours at 37° C. with 5% CO2, 50 μl of the medium was removed and 30 μl of ONE-Glo™ Luciferase Assay System reagent (cat. #E6120, Promega, Madison, USA) was added to each well. Luminescence was read on Synergy H1 (Biotek, Winooski, USA).
Target sequence in this assay (Q86WV6 whole entry H232R, the tested form may be a part): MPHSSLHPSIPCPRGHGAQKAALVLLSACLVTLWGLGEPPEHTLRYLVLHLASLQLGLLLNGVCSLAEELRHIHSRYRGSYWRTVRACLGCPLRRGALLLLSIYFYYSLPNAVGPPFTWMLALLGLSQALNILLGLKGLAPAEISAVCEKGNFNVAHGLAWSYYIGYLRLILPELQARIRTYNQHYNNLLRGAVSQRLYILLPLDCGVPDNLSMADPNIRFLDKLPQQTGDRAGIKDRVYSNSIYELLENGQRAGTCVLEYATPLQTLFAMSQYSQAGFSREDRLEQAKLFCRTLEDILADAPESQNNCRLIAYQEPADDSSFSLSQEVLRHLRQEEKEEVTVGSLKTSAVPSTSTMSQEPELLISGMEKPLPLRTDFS

AQ STING (G230A-R293Q) = target: T2, AQ STING (G230A-R293Q) (Homo sapiens, UniProt Q86WV6, G230A/H232R/R293Q); assay: Differential Scanning Fluorimetry (DSF) with AQ STING; assay type: binding; details: thermal shift vs apoprotein; truncated human AQ STING 0.1 mg/ml; 150 μM CDN
T2 construct: truncated human WT STING or AQ STING (amino acid residues 140-343) with N-terminal 8×His and SUMO tag; 8xHis-SUMO (N, cleaved yes); made in house; host or cells: E. coli Rosetta-gami B (DE3)
T2 sequence (Q86WV6 140-343 G230A/H232R/R293Q): as the sequence (Q86WV6 140-343 H232R) above, with G91A, R154Q counted along it
Protocol: as §1, §2, §3, §4, §5

DSF ΔTm WT STING (WT STING [1]) [°C]	EC50 (WT STING [2]) [µM]	DSF ΔTm AQ STING (AQ STING (G230A-R293Q)) [°C]	Structure (SMILES)
2.5	4.2	7.9	Nc1ncnc2c1ncn2[C@@H]1O[C@@H]2OCP(=O)(O)O[C@@H]3[C@H](O)[C@@H](OCP(=O)(O)O[C@@H]1[C@@H]2O)O[C@H]3n1cnc2c(N)ncnc21 [Compound 11, (1R,6R,8R,9R,14R,16R,17S,18S)-8,16-bis(6-amino-9H-purin-9-yl)-3,11,17,18-tetrahydroxy-2,5,7,10,13,15-hexaoxa-3,11-diphosphatricyclo[12.2.1.1^6,9]octadecane 3,11-dioxide]
2.0	6	6.3	Nc1ncnc2c1ncn2[C@@H]1O[C@@H]2COP(=O)(O)O[C@@H]3[C@H](O)[C@@H](COCP(=O)(O)O[C@@H]1[C@@H]2O)O[C@H]3n1cnc2c(N)ncnc21 [Compound 12, (1R,6R,8R,9R,15R,17R,18R,19R)-8,17-bis(6-amino-9H-purin-9-yl)-3,11,18,19-tetrahydroxy-2,4,7,10,13,16-hexaoxa-3,11-diphosphatricyclo[13.2.1.1^6,9]nonadecane 3,11-dioxide]
0.6			C[C@]12OCP(=O)(O)O[C@H]3[C@H](n4cnc5c(N)ncnc54)O[C@](C)(OCP(=O)(O)O[C@@H]([C@H](n4cnc5c(N)ncnc54)O1)[C@@H]2O)[C@H]3O [Compound 13, (1R,6R,8R,9R,14R,16R,17S,18S)-8,16-bis(6-amino-9H-purin-9-yl)-3,11,17,18-tetrahydroxy-6,14-dimethyl-2,5,7,10,13,15-hexaoxa-3,11-diphosphatricyclo[12.2.1.1^6,9]octadecane 3,11-dioxide]
0.7	2.35	20.8	Nc1ncnc2c1ncn2[C@@H]1O[C@@H]2OCP(=O)(O)O[C@@H]3[C@H](O)[C@@H](COP(=O)(O)O[C@@H]1[C@@H]2O)O[C@H]3n1cnc2c(N)ncnc21 [Compound 14, (1R,6R,8R,9R,14R,16R,17S,18R)-8,16-bis(6-amino-9H-purin-9-yl)-3,11,17,18-tetrahydroxy-2,4,7,10,13,15-hexaoxa-3,11-diphosphatricyclo[12.2.1.1^6,9]octadecane 3,11-dioxide]
1.7	16.4	5.5	Nc1ncnc2c1ncn2[C@@H]1O[C@@H]2COP(=O)(O)O[C@H]3[C@H](O)[C@@H](COCP(=O)(O)O[C@@H]1[C@@H]2O)O[C@H]3n1cnc2c(N)ncnc21 [Compound 15, (1S,6R,8R,9R,15R,17R,18R,19R)-8,17-bis(6-amino-9H-purin-9-yl)-3,11,18,19-tetrahydroxy-2,4,7,10,13,16-hexaoxa-3,11-diphosphatricyclo[13.2.1.16,9]nonadecane 3,11-dioxide]
